The numbers were not newly measured in patent US20070092575A1, “Compositions for administering RNAIII-inhibiting peptides” (priority 2005, published 2007), which cites them from elsewhere.

Like-named read-outs stand apart in the source and are kept apart here. Ends that are not written are not given here.

The test system of data set [1] is S. aureus LS-1. The settings on record: Arthritis, mouse, strain LS-1, +RIP.
Data set [2] has as its system S. aureus LS-1. Particulars: Sepsis, mouse, strain LS-1, +RIP.
Data set [3] deals with MRSA, MRSE, VISA, VISE, GISA, GISE, MSSA, MSSE. Particulars: Graft injection, rat, +RIP.
Data set [4] concerns S. aureus strain Smith diffuse. The settings on record: Cellulitis/sepsis, mouse, +RIP.
A further data set concerns S. aureus MS. Particulars: Osteomyelitis, rabbit, strain MS, +RIP.
For data set [5], the system named is S. aureus Newbould 305, AE-1. The settings on record: Mastitis, cow, strain Newbould/AE-1, +RIP.
In the next data set the test system is S. aureus 8325-4. Particulars: Keratitis, rabbit, strain 8325-4, +RIP.

For “YSPWTNF(-NH2) (YSPWTNF-NH2) [RIP, amide form of a synthetic RIP analogue]”, the “% animals disease free” value is given as 60% with S. aureus LS-1 [1]; 44% with S. aureus LS-1 [2]; “Up to 100%” in data set [3]; “Up to 100%” in data set [4]; 58% in the data set with S. aureus MS; 70-100% in data set [5]. Further, in the data set with S. aureus 8325-4, the “% animals disease free” value is 40%.
